The values that follow come from patent US20240182415A1, “ACETAL, KETAL, AND […] OF PSILOCIN, PROCESSES FOR THE PREPARATION THEREOF, AND METHODS OF USE” (Invyxis, Inc., priority 2022, published 2024).

Data set [1] deals with human serotonin 5HT2A receptor (Homo sapiens, UniProt P28223). Nature of the data set: 5HT2A receptor radioligand displacement assay. The conditions noted are these: displacement of [3H]-ketanserin or [3H]-LSD, 5HT2A membrane from HEK293.
A short description of data set [2]: Compound stability in fasted state simulated gastric fluid (FaSSGF). It counts as in vitro ADME. Particulars: 37° C., 60 min vs T0. As for the experimental part:
Fasted state simulated gastric fluid (FaSSGF). FaSSGF was prepared according to the manufacturer instructions (Biorelevant, UK). Test compounds (2 μL of 200 μM solution) were added to a 96-well plate containing 198 μL FaSSGF per well. The mixture was incubation in a thermomixer at 37° C. for 60 min. Sample aliquots were removed (40 μL, from T0 and 60 min.) and quenched with acetonitrile containing 0.5 μM glyburide (IS), and the supernatant collected by centrifugation (2500 rpm, 15 min.). LC-MS was performed using an Agilent MSD (electrospray in positive ionization) equipped with a Kinetic C18 reverse-column. The percent of test compound remaining was calculated using the ratio of the peak area of intact test compound at 60 min. over T0. The percent of psilocin release was calculated by comparing the peak area of psilocin at 60 min, (for test compound) vs. peak area at T0 (2 μM psilocin).

Data set [3] in a line: Single-dose oral pharmacokinetics in mice (plasma and brain). The conditions noted are these: PO 3.0 mg/kg. Format: in vivo, C57BL6 mice. As for the experimental part: The single-dose pharmacokinetics of test compounds were analyzed relative to control (psilocin) in C57BL6 mice via oral (PO) administration. Test compound was dissolved in DMSO and transferred to a 15-mL tube, followed by addition of Tween-80, PEG-400, and water to final volume. The resulting formulation (0.3 mg/mL compound, in DMSO (1%), Tween-80 (5%), and PEG-400 (25%) in water (69%)) was vortexed for 2 min. and mixed by inversion.
Male C57BL6 mice (3× per compound, (at a weight ˜20 g)) received a single dose (oral) of test compound at 3.0 mg/kg. Blood samples were collected pre-dose and at 0.083, 0.25, 0.5, 1, 2, 4, 8, 24-hour post-dose to yield approximately 20 μL of pooled plasma (3× mice) per time point. Brain tissues were collected at 2- and 8-hr post-dose. Brain was flushed with saline solution using a perfusion needle through the ascending aorta of the ventricle to remove any remaining blood prior to collection. Plasma and brain homogenate samples were stored at −80° C. prior to extraction for LC-MS/MS analysis.
Samples were analyzed by LC-MS/MS to quantify the amounts of test compound and control (psilocin). The calculation of the pharmacokinetic (PK) parameters (AUCt, AUCinf, Cmax, Tmax, T1/2, and Kel) can be performed using a non-compartmental analysis (trapezoidal method).

The nature of data set [4]: Compound stability, IP-One incubation. It counts as in vitro ADME. Particulars: IP-One stimulation medium on CHO-K1 cells expressing 5-HT2A, 2 μM, 60 min vs T0, 37° C. As for the experimental part: IP-One incubation. CHO-K1 cells expressing recombinant Serotonin receptor 5-HT2A (Perkin Elmer, Waltham, MA), were seeded in 96-well plates (˜80,000 cells/well) and treated with 28 μL (per well) of stimulation medium (IP-One HTRF® kit) containing test compounds (2 μM) for 1 hr in a CO2 incubator (5%) at 37° C. The cell-treated medium from 3 wells were pooled together to provide 40 μL for LC-MS analysis. Aliquots for each compound were collected at time zero (To, 100% intact test compound) and 60-min. The incubated medium (40 μL) was quenched with 120 μL of acetonitrile containing 0.5 μM glyburide (IS), and the supernatant was collected by centrifugation (2500 rpm, 15 min.). LC-MS was performed using an Agilent MSD (electrospray in positive ionization) equipped with a Kinetic C18 reverse-column. The percent of test compound remaining is calculated using the ratio of the peak areas of intact test compound at 60 min. over T0. The percent of psilocin release is calculated by comparing the peak area of psilocin at 60 min. (for test compound) vs. peak area at T0 (2 μM psilocin). Results are summarized in Table 1, (rel to % parent detected; and/or % psilocin detected).

Like-named read-outs stand apart in the source and are kept apart here.

human serotonin 5HT2A receptor, sequence (P28223 whole entry): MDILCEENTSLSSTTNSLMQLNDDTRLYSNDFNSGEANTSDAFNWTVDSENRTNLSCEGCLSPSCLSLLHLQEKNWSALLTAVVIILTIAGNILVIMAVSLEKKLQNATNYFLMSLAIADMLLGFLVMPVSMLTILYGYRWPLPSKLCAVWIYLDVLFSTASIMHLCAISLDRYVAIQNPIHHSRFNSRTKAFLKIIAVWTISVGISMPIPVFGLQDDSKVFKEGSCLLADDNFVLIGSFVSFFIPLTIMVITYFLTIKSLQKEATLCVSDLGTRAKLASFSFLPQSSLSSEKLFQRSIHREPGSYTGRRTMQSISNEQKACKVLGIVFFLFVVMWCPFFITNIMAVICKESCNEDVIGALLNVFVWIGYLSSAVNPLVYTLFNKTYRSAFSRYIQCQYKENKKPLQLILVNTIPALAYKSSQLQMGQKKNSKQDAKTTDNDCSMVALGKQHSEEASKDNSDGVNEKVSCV

On to `CN(C)CCc1c[nH]c2cccc(O)c12` [Psilocin, 4-hydroxy-N,N-dimethyltryptamine], for which the “Displacement activity relative to psilocin” value in data set [1] is given as “++”. In addition, the entries for the “% parent compound” value in data set [2] and in data set [4] were 72.2% and 87.4%, respectively. Also, the “mean brain/plasma (B/P) ratio” value in data set [3] (2-h post-dose, with estimated plasma concentration of 5 ng/mL) is on record as 11.2±4.3. Moreover, the “psilocin in the brain at 8-h post-dose” value in data set [3] (8-h post-dose) is listed as “No psilocin in the brain was detected”. In addition, the “Parent PK [brain] 2 h” value in data set [3] (brain, 2 h post-dose, parent compound) came out at 54 ng/mL. For the same molecule, the Cmax in data set [3] (male, C57BL6, mouse, plasma, estimated, based on other pharmacokinetic data, read-out: Parent PK Cmax (estimated psilocin plasma concentration)) was 5 ng/mL.

As usually defined, the AUC is concentration integrated over time. As to `COC(C)Oc1cccc2[nH]cc(CCN(C)C)c12` (centres unmarked) [Test compound A, 2-(4-(1-methoxyethoxy)-1H-indol-3-yl)-N,N-dimethylethan-1-amine], the concentration at 2 h in data set [3] (male, C57BL6, mouse, brain, 2 h post-dose, parent compound, read-out: Parent PK [brain] 2 h) was found to be 0.6 ng/mL. Also, the AUC in data set [3] (male, C57BL6, mouse, plasma, parent compound, read-out: Parent PK AUC) stood at 51.4 ng·h/mL. In addition, the Cmax in data set [3] (male, C57BL6, mouse, plasma, parent compound, read-out: Parent PK Cmax) amounted to 21.6 ng/mL.

On to `CCOCOc1cccc2[nH]cc(CCN(C)C)c12` [drawing 86], for which the “% parent compound” value in data set [4] is reported as 91.9%.

In the case of `COC(C)Oc1cccc2[nH]cc(CCN(C)C)c12` (centres unmarked) [drawing 87], the “% parent compound” value in data set [4] came to 88.8%.

Regarding `COC(C)n1cc(CCN(C)C)c2c(O)cccc21` (centres unmarked) [drawing 88], the “% parent compound” value in data set [4] is reported as 82.5%.

Take `COCCOCn1cc(CCN(C)C)c2c(OCOC)cccc21` [drawing 89]: the “% parent compound” value in data set [4] came out at 94.7%.

With `CCOCOc1cccc2[nH]cc(CCN(C)C)c12` [drawing 91], in data set [2], the “% parent compound” value is listed as 97%.

As to `COCCOCn1cc(CCN(C)C)c2c(OCOC)cccc21` [drawing 94], in data set [2], the “% parent compound” value is listed as 20%.

For `CCOCOc1cccc2[nH]cc(CCN(C)C)c12` [drawing 96], the “Displacement activity relative to psilocin” value in data set [1] is listed as “+++”.

As for `COC(C)Oc1cccc2[nH]cc(CCN(C)C)c12` (centres unmarked) [drawing 97], the “Displacement activity relative to psilocin” value in data set [1] was “++”.

As to `COC(C)n1cc(CCN(C)C)c2c(O)cccc21` (centres unmarked) [drawing 98], in data set [1], the “Displacement activity relative to psilocin” value is “+”.

Take `COCCOCn1cc(CCN(C)C)c2c(OCOC)cccc21` [drawing 99]: the “Displacement activity relative to psilocin” value in data set [1] was “+”.
